The source of these data is the SangsterLogP compilation.

For series [1] the following is noted: pH 7.4.
Test in series [2]: not given
The source holds these as a separate data set.

Series [3] can be described thus: method code SF-AS, from DOI: 10.1016/s0021-9673(00)82600-x.
Series [4] is described as follows: method code SF, from DOI: 10.1021/jm00237a002, PMID: 1133810. The following applies: pH 7.2.
Series [5] in a line: from Sparatore, F.; Grieco, C.; Silipo, C.; Vittoria, A. (1979). Use of regression analysis to correlate auxin activity with chemical physical and structural properties of benzotriazole derivatives. III. …. The following applies: pH 5.6.
Test in series [6]: not given
The source holds these as a separate data set.

The nature of series [7]: method code SF-AS, from Busch, N.; Moleyre, J.; Bondivenne, R.; Labrid, C. (1973). Study of the predictive value of the Hansch correlation equations for a series of beta-alkoxy-beta-phenylethyl pyrrolidines. Chimica ….
Series [8] is described as follows: method code SF-ESR, from DOI: 10.1515/znc-1987-7-832, PMID: 2961152.
Test in series [9]: not given
This is another data set of the same source.

Test in series [10]: not given
The source holds these as a separate data set.

Test in series [11]: not given
The source holds these as a separate data set.

Test in series [12]: not given
This is another data set of the same source.

Test in series [13]: not given
This is another data set of the same source.

Test in series [14]: not given
This is another data set of the same source.

Test in series [15]: not given
The source holds these as a separate data set.

Series [16] can be described thus: method code SF-AS/HPLC, from Ellington, J. J. (1988). Octanol/water partition coefficients for evaluation of hazardous waste land disposal: Selected chemicals. US Environmental Protection Agency, Environmental Research ….
Series [17] can be described thus: method code SF, from DOI: 10.1021/jm00114a024, PMID: 1920362.
Test in series [18]: not given
The source holds these as a separate data set.

Series [19] in a line: method code SF-AS, from Jha, T.; Debnath, A.; Mazumdar, A.; Sengupta, C.; De, A. (1986). Hansch analysis of antineoplastic agents, 5-N-substituted-2-p-substituted benzenesulfonyl-L-glutamines. Ind. J. Chem., Sect. B, ….
Test in series [20]: not given
This is another data set of the same source.

Series [21] can be described thus: method code SF-RC, from DOI: 10.1016/j.nucmedbio.2008.01.001, PMID: 18355684. The following applies: pH 7.4.
Test in series [22]: not given
The source holds these as a separate data set.

Series [23] in a line: method code RP-HPLC, from DOI: 10.2166/wqrj.1987.010. The following applies: pH 7.0.
Series [24] in a line: method code SF, from DOI: 10.1016/j.nucmedbio.2004.02.004, PMID: 15219281.
Test in series [25]: not given
This is another data set of the same source.

Test in series [26]: not given
This is another data set of the same source.

Series [27] is described as follows: method code SF, from DOI: 10.1023/a:1016286026462, PMID: 8570535.
A short description of series [28]: method code SF-AS, from DOI: 10.1515/znc-1987-7-832, PMID: 2961152.
Series [29] can be described thus: method code SF-HPLC, from DOI: 10.1248/cpb.37.2861, PMID: 2611948. The following applies: pH 4.0.
Series [30] in a line: method code SF-AS, from DOI: 10.1021/acs.jmedchem.5b01455, PMID: 26523333. The following applies: pH 7.4.
Series [31] in a line: method code SF-AS, from DOI: 10.1016/0378-5173(84)90231-x.
Test in series [32]: not given
This is another data set of the same source.

The nature of series [33]: method code SF-AS, from DOI: 10.1016/j.ejps.2010.09.003, PMID: 20854904. The following applies: pH 10.0.

One may read the logD as lipophilicity at a set pH, counting ionised and neutral species. Low readings indicate lower lipophilicity, high ones higher lipophilicity. `CC(=O)Oc1ccccc1C(=O)OCS(C)=O` (configuration not stated): in [1], the logD was 0.11.
For orientation: logP means the decadic logarithm of the partition coefficient of the neutral form, usually between octanol and water. Compound `c1ccc2c(c1)ccc1ccccc12` gave a logP of 4.69.
As to `O=C(CCCCCO[N+](=O)[O-])Oc1ccccc1C(=O)O`, in series [2], the logP was determined as 2.49.
Regarding `CN(C)c1cnn(-c2ccccc2)c(=O)c1Cl`, the logP in [3] is 1.55.
`CCc1cnc(NS(=O)(=O)c2ccccc2)nc1` had a logD in series [4] of 0.88.
Compound `OCCCCCn1nnc2ccccc21` gave a pH-dependent lipophilicity (logD) in series [5] of 1.51.
In turn, `S=C=Nc1ccc(-c2ccc(N=C=S)cc2)cc1` displayed a logP in [6] of 5.5.
Regarding `OC(CN1CCCC1)c1ccccc1` (configuration not stated), the logP in series [7] was 1.38.
As for `CC1(C)CC(NC(=O)N(CCCl)N=O)CC(C)(C)N1[O]`, the logP in series [8] worked out at 1.6.
`CCOP(=S)(OCC)SCSc1ccc(Cl)cc1` registered a logP in series [9] of 4.53.
Consider `Clc1ccc(-c2ccc(Cl)c(Cl)c2)cc1Cl`, for which the logP in [10] turned out to be 6.04.
For `CS(=O)(=O)c1ccc([C@@H](O)[C@@H](CO)NC(=O)C(Cl)Cl)cc1`, in series [11], the logP turned out to be 0.15.
In turn, `Clc1cccc2c1Oc1ccccc1O2` had a logP in series [12] of 4.75.
In turn, `Cc1nccn1CC1CCc2c(c3ccccc3n2C)C1=O` (configuration not stated) yielded a logP in series [13] of 1.92.
In turn, `CC(=O)c1ccc2cccccc1-2` gave a logP in series [14] of 2.87.
On to `CC(C)N1CCOC(c2cccc(Cl)c2)C1` (configuration not stated), for which the logP in series [15] was 3.27.
`Clc1cc(Cl)c(-c2cc(Cl)c(Cl)c(Cl)c2Cl)cc1Cl`: the logP came to 7.15.
On to `C/C=C(/C)C(=O)O[C@H]1CCN2CC=C(COC(=O)[C@@](O)([C@H](C)OC)C(C)(C)O)[C@H]12`, for which the logP in series [16] came out at 1.28.
`CN(C)CCN(C)S(=O)(=O)c1ccc(C(C)(C)[N+](=O)[O-])c([N+](=O)[O-])c1` yielded a logP in series [17] of 1.42.
For `Brc1cc(Br)cc(-c2cc(Br)cc(Br)c2)c1`, the logP in [10] was determined as 7.41.
As for `Clc1cc2c(c(Cl)c1Cl)Oc1c(Cl)c(Cl)c(Cl)c(Cl)c1O2`, the logP in [12] is 8.2.
Turning to `Clc1cc2oc3c(Cl)c(Cl)c(Cl)cc3c2cc1Cl`, the logP in series [18] worked out at 6.31.
The compound `NC(=O)CCC(NS(=O)(=O)c1ccccc1)C(=O)O` (configuration not stated) displayed a logP in series [19] of 0.58.
`CCOc1cnc(NS(=O)(=O)c2ccccc2)nc1` showed a logD in series [4] of 0.53.
Compound `COc1ccc2nc(C3=N[C@@H](C(=O)O)CS3)sc2c1` returned a logP in series [20] of 1.16.
On to `CN1CCC=C(c2nsnc2SCCC(F)(F)F)C1`, for which, in series [21], the logD was determined as 2.9.
In [22], `CCC1(CC)C(=O)NC(=O)N=C1OC(C)C` returned a logP of 1.86.
As for `CC[C@@H](CO)NCCN[C@@H](CC)CO`, the logP in series [13] was -0.4.
Turning to `S=C=NCc1ccc2ccccc2c1`, in [6], the logP turned out to be 4.42.
In turn, `O=Cc1ccc2cccccc1-2` displayed a logP in series [14] of 2.64.
Turning to `COC(CN1CCCC1)c1ccccc1` (configuration not stated), in series [7], the logP is 1.88.
Compound `Cc1cc(Cl)ccc1OCC(=O)OCCCCCC(C)C` showed a logD in series [23] of 6.69.
Take `CC(=O)Oc1ccccc1C(=O)OCCN(C)C(C)=O`: the logD in series [1] turned out to be 1.46.
On to `CCC1(c2ccccc2)C(=O)NC(=O)N(C(C)C)C1=O` (configuration not stated), for which the logP in series [22] was 2.58.
Turning to `OCCCCCCn1nc2ccccc2n1`, the logD in [5] stood at 2.26.
The compound `O=c1[nH]c(=O)n([C@@H]2O[C@H](CO)[C@@H](O)[C@H]2F)cc1/C=C/I` displayed a lipophilicity (logP) in series [24] of 1.21.
Regarding `Clc1ccc(-c2ccc(Cl)cc2Cl)cc1`, in [25], the logP came to 5.62.
With `Clc1cc2oc3cc(Cl)c(Cl)c(Cl)c3c2cc1Cl`, the logP in [18] is 6.7.
`Nc1ccc(S(=O)(=O)Nc2ccc(S(N)(=O)=O)cc2)cc1` registered a logP in series [26] of 0.35.
In turn, `Clc1ccccc1C(c1ccccc1)(c1ccccc1)n1ccnc1` displayed a logP in series [11] of 4.75.
`Cc1cccc(C2CNCCO2)c1` (configuration not stated) registered a logP in series [15] of 1.52.
In turn, `COc1ccc(C=CC(=O)OCCC(C)C)cc1` returned a logP in series [27] of 4.83.
`COc1cnn(-c2ccccc2)c(=O)c1Br` came in with a logP in series [3] of 1.42.
In [28], `CC1CCC(NC(=O)N(CCCl)N=O)CC1` (configuration not stated) had a logP of 3.25.
In the case of `Nc1ccc(S(=O)(=O)Nc2ccccc2)cc1`, in [26], the logP was determined as 1.55.
Consider `CN(C(=O)N(CCCl)N=O)C1CC(C)(C)N(O)C(C)(C)C1`, for which the lipophilicity (logP) in series [28] was 1.7.
`O=c1[nH]c(=O)n(Cc2ccc(Cl)cc2)cc1F`: in [29], the logD was 1.64.
Regarding `CNC(=O)Oc1cc(C)c(N(C)C)c(C)c1`, in series [9], the logP came out at 2.56.
In the case of `CNCCN(C)S(=O)(=O)c1ccc(CONC(N)=O)c([N+](=O)[O-])c1`, the logP in [17] was determined as 0.45.
Compound `CC1(C)CC(NC(=O)N(CCCl)N=O)C(C)(C)[N+]1(C)[O-]` (configuration not stated) registered a logP in series [8] of 1.64.
`O=C(CCCO[N+](=O)[O-])Oc1ccccc1C(=O)O` displayed a logP in series [2] of 1.95.
In turn, `FCC(F)Cc1c[nH]c2ccccc12` (configuration not stated) yielded a logD in [30] of 2.54.
In the case of `CNC(=O)Oc1cccc2c1OC(C)(C)C2`, the logD in series [23] was found to be 1.88.
Turning to `CC(C)(C)[N+]([O-])=Cc1ccccc1`, the logP in [31] is 1.22.
Compound `Oc1cc(Cl)ccc1Oc1ccc(Cl)cc1Cl` came in with a logP in [27] of 4.53.
`c1ccc2c(c1)Cc1ccccc1-2` came in with a logP in series [32] of 4.2.
In [33], `CN(C)CCOC(=O)c1ccccc1` yielded a logD of 1.76.
On to `O=c1[nH]c(=O)n(Cc2ccccc2)cc1F`, for which the logD in [29] came to 0.89.
With `O=[N+]([O-])c1cc(C2CCCCC2)c(O)c([N+](=O)[O-])c1`, the logP in series [16] stood at 4.12.
Turning to `CN1CCC=C(c2nsnc2SCCCF)C1`, in [21], the logD worked out at 2.4.
In [31], `CC(C)(C)[N+]([O-])=Cc1ccc(F)cc1` came in with a logP of 1.42.
Turning to `CC(F)(F)Cc1c[nH]c2ccccc12`, the logD in [30] was 3.3.
`Clc1ccccc1-c1ccccc1Cl`: the logP in series [25] amounted to 4.8.
As for `O=c1[nH]c(=O)n(C2CC(O)C(CO)O2)cc1/C=C/I` (configuration not stated), the logP in series [24] worked out at 1.1.
In turn, `O=C(CCN1CCOCC1)c1ccccc1` showed a logD in series [33] of 1.24.
For `CCCCNC(=O)CCC(NS(=O)(=O)c1ccc(C)cc1)C(=O)O` (configuration not stated), the logP in [19] came to 0.02.
For the compound `COC(=O)[C@H]1CSC(c2nc3ccc(O)cc3s2)=N1`, in [20], the logP was found to be 2.23.
